Test results published in PubChem BioAssay (NCI).
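Each compound was tested at five concentrations against cells in 96-well plates for 48 hours. TGI marks complete inhibition of growth.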

Experiments:
Experiment in all cases: growth of human tumour cells (NCI), 48 h
M14 melanoma = test system: M14 melanoma
RXF 393 renal = test system: RXF 393 renal
K-562 leukemia = test system: K-562 leukemia
SNB-75 CNS = test system: SNB-75 CNS
NCI-H23 lung = test system: NCI-H23 lung
SF-295 CNS = test system: SF-295 CNS
UACC-62 melanoma = test system: UACC-62 melanoma
KM12 colon = test system: KM12 colon
HS 578T breast = test system: HS 578T breast
A549 NSCLC = test system: A549 NSCLC
TK-10 renal = test system: TK-10 renal
MDA-N = test system: MDA-N
NCI-H522 lung = test system: NCI-H522 lung
OVCAR-8 ovarian = test system: OVCAR-8 ovarian
RPMI-8226 leukemia = test system: RPMI-8226 leukemia
786-0 renal = test system: 786-0 renal
HT29 colon = test system: HT29 colon
CAKI-1 renal = test system: CAKI-1 renal
U251 CNS = test system: U251 CNS
MDA-MB-231 breast = test system: MDA-MB-231 breast
COLO 205 colon = test system: COLO 205 colon
SK-MEL-2 melanoma = test system: SK-MEL-2 melanoma
MALME-3M melanoma = test system: MALME-3M melanoma
SNB-19 CNS = test system: SNB-19 CNS
SF-268 CNS = test system: SF-268 CNS
ACHN renal = test system: ACHN renal
MOLT-4 leukemia = test system: MOLT-4 leukemia
CCRF-CEM leukemia = test system: CCRF-CEM leukemia
SW-620 colon = test system: SW-620 colon
MDA-MB-435 = test system: MDA-MB-435
OVCAR-4 ovarian = test system: OVCAR-4 ovarian
HCT-116 colon = test system: HCT-116 colon
NCI-H226 lung = test system: NCI-H226 lung
UO-31 renal = test system: UO-31 renal
BT-549 breast = test system: BT-549 breast
DU-145 prostate = test system: DU-145 prostate
SK-MEL-5 melanoma = test system: SK-MEL-5 melanoma
OVCAR-3 ovarian = test system: OVCAR-3 ovarian
HCT-15 colon = test system: HCT-15 colon
SK-OV-3 ovarian = test system: SK-OV-3 ovarian
T-47D breast = test system: T-47D breast
OVCAR-5 ovarian = test system: OVCAR-5 ovarian
EKVX NSCLC = test system: EKVX NSCLC
UACC-257 melanoma = test system: UACC-257 melanoma
SN12C renal = test system: SN12C renal
SK-MEL-28 melanoma = test system: SK-MEL-28 melanoma
IGROV1 ovarian = test system: IGROV1 ovarian
HCC-2998 colon = test system: HCC-2998 colon
HOP-62 NSCLC = test system: HOP-62 NSCLC
NCI/ADR-RES ovarian = test system: NCI/ADR-RES ovarian
MCF7 breast = test system: MCF7 breast
PC-3 prostate = test system: PC-3 prostate
HL-60(TB) leukemia = test system: HL-60(TB) leukemia
HOP-92 NSCLC = test system: HOP-92 NSCLC
NCI-H460 lung = test system: NCI-H460 lung
SF-539 CNS = test system: SF-539 CNS
LOX IMVI melanoma = test system: LOX IMVI melanoma
A498 renal = test system: A498 renal
SR leukemia = test system: SR leukemia

Measured: TGI

COC(=O)CCC1(C)C2CCC1(C)/C(=N/O)C2 (configuration not stated)
not listed: HL-60(TB) leukemia | HOP-92 NSCLC | NCI-H460 lung | SF-539 CNS | LOX IMVI melanoma | A498 renal | SR leukemia
> 100 µM: all other assays above

CCC(C)C(C(=O)N/N=C1/SCC(=O)N1C)C(=O)N/N=C1/SCC(=O)N1C (configuration not stated)
7.65 µM: HL-60(TB) leukemia
not listed: CCRF-CEM leukemia | SR leukemia
> 100 µM: all other assays above

C[C@@]12c3c4ccc(C=O)c3Oc3ccc(C=O)c(c31)Oc1c(C=O)ccc(c12)O4
not listed: RXF 393 renal | NCI-H522 lung | CAKI-1 renal | CCRF-CEM leukemia | DU-145 prostate | HL-60(TB) leukemia
> 100 µM: all other assays above

C=C1CC(Cn2ccc(=O)[nH]c2=O)(c2ccc(-c3ccccc3)cc2)OC1=O (configuration not stated)
6.45 µM: T-47D breast
8.89 µM: SF-539 CNS
16.1 µM: A498 renal
3.5 µM: MDA-N
1.53 µM: K-562 leukemia
7.52 µM: PC-3 prostate
4.12 µM: HCC-2998 colon
3.72 µM: HCT-15 colon
0.338 µM: COLO 205 colon
4.64 µM: NCI/ADR-RES ovarian
26.7 µM: SNB-75 CNS
28.4 µM: NCI-H460 lung
2.39 µM: NCI-H522 lung | SK-MEL-5 melanoma
34 µM: SNB-19 CNS
29.9 µM: EKVX NSCLC
25 µM: U251 CNS
21.1 µM: SK-OV-3 ovarian
1.2 µM: CCRF-CEM leukemia
12.9 µM: KM12 colon
0.941 µM: SW-620 colon
3.25 µM: ACHN renal
8.4 µM: NCI-H23 lung
11.1 µM: OVCAR-8 ovarian
24.7 µM: OVCAR-5 ovarian
1.88 µM: UACC-62 melanoma
3.42 µM: MALME-3M melanoma
4.03 µM: OVCAR-3 ovarian
22.9 µM: HS 578T breast
4.55 µM: SK-MEL-2 melanoma
5.26 µM: MOLT-4 leukemia
25.3 µM: SF-295 CNS
0.892 µM: HCT-116 colon
1.07 µM: LOX IMVI melanoma
24.9 µM: A549 NSCLC
2.7 µM: CAKI-1 renal
1.29 µM: RPMI-8226 leukemia
2.64 µM: IGROV1 ovarian
40.2 µM: HOP-62 NSCLC
5.8 µM: MDA-MB-231 breast
3.27 µM: HT29 colon
3.88 µM: UACC-257 melanoma
2.62 µM: HOP-92 NSCLC
2.88 µM: DU-145 prostate
21.3 µM: SN12C renal
16.5 µM: UO-31 renal
1.67 µM: 786-0 renal
2.32 µM: TK-10 renal
3.73 µM: BT-549 breast
46.3 µM: SF-268 CNS
3.58 µM: M14 melanoma
2.67 µM: MCF7 breast
13.6 µM: NCI-H226 lung
6.12 µM: MDA-MB-435
5.34 µM: SK-MEL-28 melanoma
